Results: the supplement of paper PMC10307832

Legend:
Test in all cases: relative viability (nuclei count vs DMSO), 5 days (fraction); higher = more cells survive
Daporinad + Decitabine = compound: O=C(/C=C/c1cccnc1)NCCCCC1CCN(C(=O)c2ccccc2)CC1 [Daporinad] + Nc1ncn([C@H]2C[C@H](O)[C@@H](CO)O2)c(=O)n1 [Decitabine] (partner 2 µM)
How it was run: (§1)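 A single step with final 0.05% Triton X-100, 1% formaldehyde and 1 ug/ml Hoechst fixed the cells and stained nuclei 5 days after treatment. Lung cancer cell lines in 1536-well plates had been treated by pin tool the day after seeding with one drug alone or a fixed anchor-drug dose plus five library-drug doses (not always all listed) in √10 steps, and nuclei were counted on 4× images. Relative viability is the ratio of nuclei in treated wells to nuclei in vehicle wells, taken as the median of duplicate plates.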

R406 + Crizotinib = compound: COc1cc(Nc2ncc(F)c(Nc3ccc4c(n3)NC(=O)C(C)(C)O4)n2)cc(OC)c1OC [R406] + C[C@@H](Oc1cc(-c2cnn(C3CCNCC3)c2)cnc1N)c1c(Cl)ccc(F)c1Cl [Crizotinib] (partner 1 µM)
How it was run: as §1

Daporinad + Palbociclib = compound: O=C(/C=C/c1cccnc1)NCCCCC1CCN(C(=O)c2ccccc2)CC1 [Daporinad] + CC(=O)c1c(C)c2cnc(Nc3ccc(N4CCNCC4)cn3)nc2n(C2CCCC2)c1=O [Palbociclib] (partner 0.5 µM)
How it was run: as §1

R406 + Linsitinib = compound: COc1cc(Nc2ncc(F)c(Nc3ccc4c(n3)NC(=O)C(C)(C)O4)n2)cc(OC)c1OC [R406] + C[C@]1(O)C[C@@H](c2nc(-c3ccc4ccc(-c5ccccc5)nc4c3)c3c(N)nccn32)C1 [Linsitinib] (partner 1 µM)
How it was run: as §1

Cell Line	relative viability (Daporinad + Decitabine; first compound 0.0005 µM)	relative viability (Daporinad + Decitabine; first compound 0.001581 µM)	relative viability (Daporinad + Decitabine; first compound 0.005 µM)	relative viability (Daporinad + Decitabine; first compound 0.01581 µM)	relative viability (R406 + Crizotinib; first compound 0.08 µM)	relative viability (R406 + Crizotinib; first compound 0.253 µM)	relative viability (R406 + Crizotinib; first compound 0.8 µM)	relative viability (R406 + Crizotinib; first compound 2.53 µM)	relative viability (R406 + Crizotinib; first compound 8 µM)	relative viability (Daporinad + Palbociclib; first compound 0.0005 µM)	relative viability (Daporinad + Palbociclib; first compound 0.001581 µM)	relative viability (Daporinad + Palbociclib; first compound 0.005 µM)	relative viability (Daporinad + Palbociclib; first compound 0.01581 µM)	relative viability (R406 + Linsitinib; first compound 0.08 µM)	relative viability (R406 + Linsitinib; first compound 0.253 µM)	relative viability (R406 + Linsitinib; first compound 0.8 µM)	relative viability (R406 + Linsitinib; first compound 2.53 µM)	relative viability (R406 + Linsitinib; first compound 8 µM)
NCI-H23	0.319	0.306	0.272	0.23	0.458	0.607	0.571	0.439	0.285	0.578	0.467	0.463	0.275	0.494	0.7	0.7	0.56	0.459
NCI-H322M	0.659	0.749	0.683	0.664	0.811	1.06	0.978	0.611	0.438	0.495	0.565	0.449	0.512	0.879	0.814	0.983	0.523	0.472
NCI-H358	0.215	0.256	0.233	0.194	0.639	0.587	0.498	0.434	0.221	0.111	0.135	0.154	0.153	0.889	0.752	0.723	0.418	0.336
NCI-H441	0.249	0.204	0.281	0.237	0.72	0.975	0.846	0.599	0.461	0.186	0.209	0.212	0.23	0.377	0.609	0.662	0.411	0.47
NCI-H460	0.493	0.466	0.481	0.453	0.829	1.09	1.16	–	0.441	0.153	0.191	0.236	0.169	0.824	0.8	1.17	–	0.0646
NCI-H520	0.558	0.513	0.283	0.18	0.735	1.09	0.875	0.58	0.269	0.209	0.286	0.158	0.183	0.897	1.09	1.07	0.486	0.295
NCI-H647	0.37	0.425	0.448	0.366	0.987	1.35	1.26	0.573	0.0968	0.251	0.429	0.414	0.363	0.813	1.21	1.15	0.763	0.159
NCI-H650	0.307	0.387	0.351	0.323	0.809	0.848	0.713	0.59	0.532	0.351	0.423	0.329	0.367	0.909	0.876	1.15	0.473	0.528
NCI-H661	0.615	0.625	0.416	0.362	–	1.01	1.02	0.882	1.14	0.389	0.459	0.419	0.359	0.436	0.72	0.515	0.39	0.335
NCI-H727	0.822	0.903	1	0.67	0.866	0.852	0.898	0.714	0.301	0.694	0.622	0.647	0.646	0.252	0.28	0.319	0.35	0.237
NCI-H838	0.44	0.518	0.358	0.303	0.806	0.945	0.949	0.612	0.516	0.254	0.258	0.29	0.199	1.03	1.15	1.12	0.645	0.522
NCI-H1355	0.373	0.356	0.323	0.369	1.09	1.14	1.25	0.909	0.687	0.413	0.412	0.384	0.504	0.83	0.83	0.94	0.588	0.596
NCI-H1437	0.554	0.565	0.614	0.575	0.944	1.13	0.971	0.864	0.716	0.274	0.332	0.338	0.289	1.01	1.26	1.24	0.904	0.49
NCI-H1651	0.711	0.67	0.731	0.47	0.869	0.914	0.853	0.815	0.929	0.537	0.528	0.5	0.522	0.862	1.1	1.06	0.829	0.5
NCI-H1666	0.666	0.712	0.814	0.718	0.92	1.3	0.973	0.849	0.461	0.653	0.679	0.624	0.69	0.837	0.792	0.872	0.735	0.449
NCI-H1734	0.488	0.494	0.394	0.32	0.707	0.814	0.654	0.542	0.292	0.361	0.404	0.356	0.328	0.912	0.859	0.949	0.818	0.554
NCI-H1755	0.747	0.716	0.713	0.652	0.81	0.954	0.861	0.641	0.188	0.456	0.441	0.415	0.431	0.924	1.02	1.02	0.779	0.688
NCI-H1792	0.545	0.65	0.683	0.406	0.842	1.03	1.03	0.925	0.884	0.637	0.694	0.654	0.681	0.484	0.387	0.744	0.411	0.505

Cell Line	relative viability (Daporinad + Decitabine; first compound 0.0005 µM)	relative viability (Daporinad + Decitabine; first compound 0.001581 µM)	relative viability (Daporinad + Decitabine; first compound 0.005 µM)	relative viability (Daporinad + Decitabine; first compound 0.01581 µM)	relative viability (R406 + Crizotinib; first compound 0.08 µM)	relative viability (R406 + Crizotinib; first compound 0.253 µM)	relative viability (R406 + Crizotinib; first compound 0.8 µM)	relative viability (R406 + Crizotinib; first compound 2.53 µM)	relative viability (R406 + Crizotinib; first compound 8 µM)	relative viability (Daporinad + Palbociclib; first compound 0.0005 µM)	relative viability (Daporinad + Palbociclib; first compound 0.001581 µM)	relative viability (Daporinad + Palbociclib; first compound 0.005 µM)	relative viability (Daporinad + Palbociclib; first compound 0.01581 µM)	relative viability (R406 + Linsitinib; first compound 0.08 µM)	relative viability (R406 + Linsitinib; first compound 0.253 µM)	relative viability (R406 + Linsitinib; first compound 0.8 µM)	relative viability (R406 + Linsitinib; first compound 2.53 µM)	relative viability (R406 + Linsitinib; first compound 8 µM)
NCI-H1915	0.25	0.283	0.271	0.257	0.898	0.975	0.959	0.782	0.874	0.569	0.508	0.61	0.521	1.09	1.12	1.09	1.09	0.98
NCI-H1944	0.44	0.406	0.497	0.411	1.1	1.24	1.04	0.875	0.737	0.36	0.356	0.374	0.353	1.21	1.24	1.22	0.879	0.741
NCI-H1975	0.444	0.338	0.382	0.373	0.949	1.13	0.977	0.46	0.221	0.565	0.602	0.613	0.705	0.875	1.06	0.981	0.467	0.186
NCI-H1993	0.576	0.629	0.602	0.639	0.933	0.866	0.809	0.75	0.661	0.583	0.563	0.719	0.706	0.762	0.656	0.709	0.675	0.703
NCI-H2009	0.356	0.395	0.381	0.372	1.07	1.02	1.13	0.815	0.301	0.204	0.253	0.252	0.0753	1.09	1.3	1.19	1.18	1.07
NCI-H2023	0.208	0.247	0.247	0.232	0.705	0.855	0.681	0.254	0.145	0.402	0.405	0.445	0.401	0.633	0.714	0.62	0.253	0.55
NCI-H2085	0.486	–	0.59	0.573	0.841	0.974	0.785	0.887	0.566	0.41	–	0.512	0.533	0.899	1.08	0.825	0.971	0.707
NCI-H2087	0.264	0.317	0.329	0.277	0.825	1.26	0.899	0.983	0.936	0.215	0.242	0.224	0.243	1.29	1.04	0.914	1.03	0.709
NCI-H2126	0.618	0.524	0.638	0.584	0.965	1.11	1.01	1.02	0.995	0.358	0.32	0.356	0.36	0.683	0.783	0.753	0.657	0.625
NCI-H2347	0.457	0.721	0.619	0.578	0.588	0.538	0.889	0.556	0.487	0.447	0.447	0.419	0.384	0.928	1.01	1.06	0.848	0.71
NCI-H2405	0.796	0.807	0.751	0.379	0.769	0.989	0.861	0.78	0.638	0.54	0.577	0.555	0.415	0.916	0.89	1.01	0.731	0.221
NCI-H3122	0.308	0.417	0.392	0.321	0.286	0.257	0.247	0.25	0.259	0.168	0.205	0.192	0.177	0.976	0.921	0.982	1.01	0.98
PC-3 [JPC-3]	0.84	0.781	0.91	0.907	1.04	1	1.02	0.98	0.885	0.548	0.54	0.535	0.553	0.981	0.977	1.01	1	0.791
PC-14	0.189	0.199	0.23	0.144	0.92	1.06	0.862	0.79	0.687	0.564	0.522	0.601	0.339	0.941	1.05	1.01	0.852	0.8
RERF-LC-KJ	0.565	0.697	0.758	0.827	0.762	0.838	0.875	0.81	0.771	1.08	1.06	1.09	1.07	0.848	0.846	1.03	0.657	0.695
SK-LU-1	0.656	0.683	0.671	0.692	0.997	1.07	1.15	0.424	0.155	0.336	0.268	0.423	0.422	1.03	1.07	1.07	0.595	0.292
SK-MES-1	0.377	0.374	0.383	0.375	0.992	1.04	0.959	0.73	0.43	0.332	0.303	0.329	0.352	1.04	1.13	1.1	0.569	0.488
